# Results taken from US20140308675A1, “MUTAGENICITY TEST METHOD USING MAMMALIAN CELLS” (NISSIN FOODS HOLDINGS CO., LTD., priority 2011, published 2014).
# “Also recorded” adds a separate entry of the source.
# Experiments:
# [1] = tested on: cells TK6/p53R2×3-Luc2P/Rluc; test: Mutagenicity test with internal control, cells TK6/p53R2×3-Luc2P/Rluc; format: cell-based, human; details: 0.1-20 μg/mL; 6 hours; FIG. 11
# Experimental: Next, in accordance with the method of Example 8, cells stably expressing Luc2P and Rluc were acquired and named TK6/p53R2×3-Luc2P/Rluc.
# Next, the above-mentioned two kinds of cells were brought into contact with 5-aza-2′-deoxycytidine (5-aza-dC).
# After the removal of the medium, the expression amount of the Luc2P gene was determined as a relative value to the expression amount of the Rluc gene. Specifically, through the use of a luminometer LB96P with an enzyme substrate automatic injector (manufactured by Berthold), first, a substrate solution for firefly luciferase measurement (manufactured by Promega) was dispensed at 30 μL/well to measure the expression amount of the Luc2P gene. After that, a substrate solution for Sea pansy luciferase measurement (manufactured by Promega) was further dispensed at 30 μL/well to determine the expression amount of the Rluc gene.
# [2] = tested on: HepG2 cells transfected with PGV-p53R2×3-Luc; test: Luciferase reporter, PGV-p53R2×3-Luc transformant of HepG2; format: cell-based, human; details: HepG2, PGV-p53R2×3-Luc
# Experimental: (§1) To the obtained various transformants of MCF-7, HepG2, A549, HCT116, HEK293, and NB1RGB, adriamycin dissolved in DMSO was added, followed by culture for 8 hours. After that, luciferase activities were measured in the same manner as in the TK6 cells.
# (§2) Transfection with plasmid PGV-p53R2×3-Luc, culture, and luciferase activity measurement were performed in the same manner as in Reference Example 1 described above except that the transformant was cultured for the following culture time: 16 hours in TK6 cells; 24 hours in MCF-7, HepG2, A549, HCT116, and HEK293; and 18 hours in NB1RGB.
# [3] = tested on: HCT116 cells transfected with PGV-p53R2×3-Luc; test: Luciferase reporter, PGV-p53R2×3-Luc transformant of HCT116; format: cell-based, human; details: HCT116, PGV-p53R2×3-Luc
# Experimental: as §1, §2
# [4] = tested on: HCT116 cells transfected with pGL4-p53R2×3-SV40-Luc2; test: Luciferase reporter, pGL4-p53R2×3-SV40-Luc2 transformant of HCT116; format: cell-based, human; details: HCT116, pGL4-p53R2×3-SV40-Luc2; 8 hours after contact; FIG. 4
# From the text: (§3) The obtained various transformants of the MCF-7 cells, the HepG2 cells, the A549 cells, the HCT116 cells, the HEK293 cells, and the NB1RGB cells were used to measure luciferase activities in the same manner as in the TK6 cells.
# [5] = tested on: A549 cells transfected with pGL4-p53R2×3-SV40-Luc2; test: Luciferase reporter, pGL4-p53R2×3-SV40-Luc2 transformant of A549; format: cell-based, human; details: A549, pGL4-p53R2×3-SV40-Luc2; 8 hours after contact; FIG. 4
# From the text: as §3
# [6] = tested on: HEK293 cells transfected with pGL4-p53R2×3-SV40-Luc2; test: Luciferase reporter, pGL4-p53R2×3-SV40-Luc2 transformant of HEK293; format: cell-based, human; details: HEK293, pGL4-p53R2×3-SV40-Luc2; 8 hours after contact; FIG. 4
# From the text: as §3
# [7] = tested on: MCF-7 cells transfected with PGV-p53R2×3-Luc; test: Luciferase reporter, PGV-p53R2×3-Luc transformant of MCF-7; format: cell-based, human; details: MCF-7, PGV-p53R2×3-Luc
# Experimental: as §1, §2
# [8] = tested on: HepG2 cells transfected with pGL4-p53R2×3-SV40-Luc2; test: Luciferase reporter, pGL4-p53R2×3-SV40-Luc2 transformant of HepG2; format: cell-based, human; details: HepG2, pGL4-p53R2×3-SV40-Luc2; 8 hours after contact; FIG. 4
# From the text: as §3
# [9] = tested on: stable expression cells TK6/p53R2×3-Luc2P; test: Mutagenicity test: luciferase reporter, stable expression cells TK6/p53R2×3-Luc2P
# [10] = tested on: NB1RGB cells transfected with PGV-p53R2×3-Luc; test: Luciferase reporter, PGV-p53R2×3-Luc transformant of NB1RGB; format: cell-based, human
# Experimental: as §1, §2
# [11] = tested on: NB1RGB cells transfected with pGL4-p53R2×3-SV40-Luc2; test: Luciferase reporter, pGL4-p53R2×3-SV40-Luc2 transformant of NB1RGB; format: cell-based, human; details: 8 hours after contact, FIG. 4
# From the text: as §3
# [12] = tested on: TK6 cells transfected with pGL4-p53R2×3-SV40-Luc2; test: Mutagenicity test: luciferase reporter, transient pGL4-p53R2×3-SV40-Luc2 transformant; format: cell-based, human; details: 0.003-0.7 μg/mL
# Experimental: Wild-type p53 of a human lymphoblast cell line TK6 cell was confirmed to be normal by DNA sequencing (ABI Prism BigDye Terminater v3.0; manufactured by Applied Biosystems) using primers for sequencing 5′-ACACGCTTCCCTGGATTG-3′ (SEQ ID NO: 17) and 5′-[…]-3′ (SEQ ID NO: 18).
# It should be noted that the amount of pGL4-p53R2×3-SV40-Luc2 for transfection was adjusted to 0.25 ng/well.
# Next, after the removal of the medium, a cell lysis solution (manufactured by Promega) was added at 25 μl/well, and the whole was left to stand at room temperature for 15 minutes. The plate was set in a luminometer LB96P with an enzyme substrate automatic injector (manufactured by Berthold), and a substrate solution (manufactured by Promega) was automatically dispensed at 30 μL/well to measure luciferase activities.
# Wild-type p53 of a human lymphoblast cell line TK6 was confirmed to be normal in the same manner as described above. […] It should be noted that the amount of pGL4-p53R2×3-SV40-Luc2 for transfection was adjusted to 0.25 ng/well.
# [13] = tested on: MCF-7 cells transfected with pGL4-p53R2×3-SV40-Luc2; test: Luciferase reporter, pGL4-p53R2×3-SV40-Luc2 transformant of MCF-7; format: cell-based, human; details: MCF-7, pGL4-p53R2×3-SV40-Luc2; 8 hours after contact; FIG. 4
# From the text: as §3
# [14] = tested on: HEK293 cells transfected with PGV-p53R2×3-Luc; test: Luciferase reporter, PGV-p53R2×3-Luc transformant of HEK293; format: cell-based, human; details: HEK293, PGV-p53R2×3-Luc
# Experimental: as §1, §2
# [15] = tested on: A549 cells transfected with PGV-p53R2×3-Luc; test: Luciferase reporter, PGV-p53R2×3-Luc transformant of A549; format: cell-based, human; details: A549, PGV-p53R2×3-Luc
# Experimental: as §1, §2
# [16] = tested on: TK6 cells transfected with PGV-p53R2×3-Luc; test: Mutagenicity test: luciferase reporter, transient PGV-p53R2×3-Luc transformant; format: cell-based, human; details: TK6, PGV-p53R2×3-Luc
# Experimental: Next, the same operation as described above was performed to measure luciferase activities except that the plasmid PGV-p53R2×3-Luc prepared in Example 1 of JP 4243716 B2 was used in place of pGL4-p53R2×3-SV40-Luc2.
# as §2
compound,measurement,setting,value
"Nc1ncn([C@H]2C[C@H](O)[C@@H](CO)O2)c(=O)n1 [5-aza-dC, 5-aza-2′-deoxycytidine]",Firefly luciferase (Luc2P) activity not corrected with Rluc activity (w/o internal control),[1],an increase in measured value due to an increase in concentration of 5-aza-dC
same,Luc2P activity corrected with Rluc activity as an internal control (with internal control),[1],no increase in measured value
COc1cccc2c1C(=O)c1c(O)c3c(c(O)c1C2=O)C[C@@](O)(C(=O)CO)C[C@@H]3O[C@H]1C[C@H](N)[C@H](O)[C@H](C)O1 [adriamycin],Luciferase activity (% of Solvent control),"[2]; contact for 8 hours, FIG. 5",only a slight increase in luciferase activity
same,Luciferase activity (% of Solvent control),"[2]; culture 24 hours, FIG. 6",high luciferase activity
same,Luciferase activity compared with the other cells,"[2]; culture 24 hours, FIG. 6",higher luciferase activities
same,Luciferase activity (% of Solvent control),"[3]; contact for 8 hours, FIG. 5",only a slight increase in luciferase activity
same,Luciferase activity (% of Solvent control),"[3]; culture 24 hours, FIG. 6",high luciferase activity
same,Luciferase activity (% of Solvent control),[4],only slight luciferase activity
same,Luciferase activity (% of Solvent control),[5],only slight luciferase activity
same,Luciferase activity (% of Solvent control),[6],only slight luciferase activity
same,Luciferase activity (% of Solvent control),"[7]; contact for 8 hours, FIG. 5",only a slight increase in luciferase activity
same,Luciferase activity (% of Solvent control),"[7]; culture 24 hours, FIG. 6",high luciferase activity
same,Luciferase activity compared with the other cells,"[7]; culture 24 hours, FIG. 6",higher luciferase activities
same,Luciferase activity (% of Solvent control),[8],only slight luciferase activity
same,"Luciferase activity (% of Solvent control), time-dependent change","[9]; 0.2 μg/mL, 2, 4, 6 and 8 hours, FIG. 9",an increase in luciferase activity due to an increase in concentration of adriamycin
same,Luciferase activity (% of Solvent control),"[9]; 0.003-0.7 μg/mL, 6 hours, FIG. 10",an increase in luciferase activity due to an increase in concentration of adriamycin
same,Luciferase activity (% of Solvent control),"[10]; contact for 8 hours, FIG. 5",only a slight increase in luciferase activity
same,Luciferase activity (% of Solvent control),"[10]; culture 18 hours, FIG. 6",high luciferase activity
same,Luciferase activity (% of Solvent control),[11],only slight luciferase activity
same,Luciferase activity (% of Solvent control),[12]; contact for 4 hours,such an increase in luciferase activity due to an increase in concentration of adriamycin as to be sufficient for performing a mutagenicity test
same,Luciferase activity (% of Solvent control),[12]; contact for 8 hours,very high luciferase activity
same,Luciferase activity (% of Solvent control),"[12]; dependence on concentration, FIG. 3",an increase in luciferase activity due to an increase in concentration of adriamycin
same,Luciferase activity (% of Solvent control),[13],only slight luciferase activity
same,Luciferase activity (% of Solvent control),"[14]; contact for 8 hours, FIG. 5",only a slight increase in luciferase activity
same,Luciferase activity (% of Solvent control),"[14]; culture 24 hours, FIG. 6",high luciferase activity
same,Luciferase activity (% of Solvent control),"[15]; contact for 8 hours, FIG. 5",only a slight increase in luciferase activity
same,Luciferase activity (% of Solvent control),"[15]; culture 24 hours, FIG. 6",high luciferase activity
same,Luciferase activity (% of Solvent control),"[16]; 0.003-0.7 μg/mL, contact for 8 hours",very small luciferase activity; also recorded: only a slight increase in luciferase activity
same,Luciferase activity (% of Solvent control),"[16]; culture 16 hours, FIG. 6",high luciferase activity
